Type in all cases: functional, organism-based
The subject of assay [1] is Mus musculus. The experiment in a line: Effect on TGFbeta+ cells in ovalbumin-sensitized and repeatedly challenged BALB/c mouse food allergy model at 200 mg/kg, po by immunohistochemistry. Details: dose 200 mg/kg.
Assay [2] deals with Mus musculus. The experiment in a line: Effect on T-cell infiltration in ovalbumin-sensitized and repeatedly challenged BALB/c mouse food allergy model assessed as CD3+ cells at 200 mg/kg, po by immunohistochemistry. The arrangement: dose 200 mg/kg.
The test system of assay [3] is Mus musculus. Briefly: Antiallergic effect in ovalbumin-sensitized and repeatedly challenged BALB/c mouse food allergy model assessed as inhibition of duodenal GATA3 expression at 200 mg/kg, po by immunohistochemistry. Details: dose 200 mg/kg.
Assay [4] deals with Mus musculus. The experiment in a line: Enhancement in regulatory T-cell immunity in intestine of ovalbumin-sensitized and repeatedly challenged BALB/c mouse food allergy model assessed as increase in Foxp3+ and IL10+ cells at 100 mg/kg, po by immunohistochemistry. The arrangement: dose 100 mg/kg.
Assay [5] concerns Mus musculus. The experiment in a line: Antiallergic effect in ovalbumin-sensitized and repeatedly challenged BALB/c mouse food allergy model assessed as attenuation of duodenal interleukin-4 expression at 200 mg/kg, po by immunohistochemistry. Details: dose 200 mg/kg.
In assay [6] the test system is Mus musculus. Briefly: Antiallergic effect in ovalbumin-sensitized and repeatedly challenged BALB/c mouse food allergy model assessed as inhibition of duodenal GATA3 expression at 100 mg/kg, po by immunohistochemistry. Details: dose 100 mg/kg.
Assay [7] deals with Mus musculus. Briefly: Effect on T-cell infiltration in ovalbumin-sensitized and repeatedly challenged BALB/c mouse food allergy model assessed as CD3+ cells at 100 mg/kg, po by immunohistochemistry. The arrangement: dose 100 mg/kg.
Assay [8] relates to Mus musculus. Briefly: Effect on TGFbeta+ cells in ovalbumin-sensitized and repeatedly challenged BALB/c mouse food allergy model at 100 mg/kg, po by immunohistochemistry. Details: dose 100 mg/kg.
Assay [9] relates to Mus musculus. The experiment in a line: Enhancement in regulatory T-cell immunity in intestine of ovalbumin-sensitized and repeatedly challenged BALB/c mouse food allergy model assessed as increase in Foxp3+ and IL10+ cells at 200 mg/kg, po by immunohistochemistry. The arrangement: dose 200 mg/kg.
Assay [10] relates to Mus musculus. The experiment in a line: Enhancement in regulatory T-cell immunity in intestine of ovalbumin-sensitized and repeatedly challenged BALB/c mouse food allergy model assessed as increase in Foxp3+ and IL10+ cells at 200 mg/kg, po by RT-PCR. The arrangement: dose 200 mg/kg.
The test system of assay [11] is Mus musculus. The experiment in a line: Enhancement in regulatory T-cell immunity in intestine of ovalbumin-sensitized and repeatedly challenged BALB/c mouse food allergy model assessed as increase in Foxp3+ and IL10+ cells at 100 mg/kg, po by RT-PCR. The arrangement: dose 100 mg/kg.
For assay [12], the system named is Mus musculus. The experiment in a line: Antiallergic effect in ovalbumin-sensitized and repeatedly challenged BALB/c mouse food allergy model assessed as attenuation of duodenal interleukin-4 expression at 100 mg/kg, po by immunohistochemistry. Details: dose 100 mg/kg.

Activity calls are given as the source filed them. The rule behind the calls is not given here.

`C[C@@H]1CC[C@@]2(OC1)O[C@H]1C[C@H]3[C@@H]4CC=C5C[C@@H](O)CC[C@]5(C)[C@H]4CC[C@]3(C)[C@H]1[C@@H]2C`: the outcome in assay [1], in assay [2], in [7] and in assay [8] was inactive. The inhibition result in assay [3], in assay [5], in assay [6] and in assay [12] was “Active” each time. In addition, the outcome in assay [4], in assay [9], in assay [10] and in [11] was Active.
